Test results as given in paper PMC9278983, “Biochemical and Structural Characterization of Thermostable GH159 Glycoside Hydrolases Exhibiting α-L-Arabinofuranosidase Activity” (Frontiers in Molecular Biosciences, 2022).

Legend:
Format in all cases: biochemical
[1] = biological target: T1, Cs_Gaf159A (Caldicellulosiruptor saccharolyticus, UniProt A4XGP0); experiment: pNP release, […] nm, Michaelis-Menten; conditions: 90 °C, pH 6.5 MOPS, 10 mM CaCl2, 10 min; saturation not reached
T1 construct: gene Csac_0437; full-length (no signal peptide), C-terminal His6 tag, pET24c(+), E. coli BL21 Star, IMAC
T1 sequence (A4XGP0 entry or part of it): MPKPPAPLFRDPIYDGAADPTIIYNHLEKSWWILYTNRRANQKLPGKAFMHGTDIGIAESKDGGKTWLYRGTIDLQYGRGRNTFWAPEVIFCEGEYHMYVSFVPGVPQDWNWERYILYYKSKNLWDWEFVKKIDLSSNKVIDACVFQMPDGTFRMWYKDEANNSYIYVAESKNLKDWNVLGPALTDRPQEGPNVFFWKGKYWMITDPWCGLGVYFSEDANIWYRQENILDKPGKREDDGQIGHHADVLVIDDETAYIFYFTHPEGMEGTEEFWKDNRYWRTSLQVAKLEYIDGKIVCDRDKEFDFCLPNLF

[2] = biological target: T2, Ch_Gaf159A (Caldicellulosiruptor hydrothermalis, UniProt E4QB49); experiment: pNP release, […] nm, Michaelis-Menten; conditions: 82 °C, pH 6.5 MOPS, 10 mM CaCl2, 10 min; saturation not reached
T2 construct: gene Calhy_0274; full-length (no signal peptide), C-terminal His6 tag, pET24c(+), E. coli BL21 Star, IMAC; monomer
T2 sequence (E4QB49 entry or part of it): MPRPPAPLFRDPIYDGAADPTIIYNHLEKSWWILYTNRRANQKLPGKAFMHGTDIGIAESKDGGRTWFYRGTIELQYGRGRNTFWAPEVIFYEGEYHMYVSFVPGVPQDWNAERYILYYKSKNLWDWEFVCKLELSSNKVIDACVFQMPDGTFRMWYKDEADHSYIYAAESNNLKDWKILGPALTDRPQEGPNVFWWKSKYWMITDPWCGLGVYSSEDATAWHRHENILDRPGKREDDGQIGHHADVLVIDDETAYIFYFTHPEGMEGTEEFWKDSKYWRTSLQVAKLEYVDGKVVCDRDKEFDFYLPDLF

[3] = biological target: T2, Ch_Gaf159A; experiment: product inhibition, pNPA hydrolysis; conditions: read-out: % inhibition at 500 mM
[4] = biological target: T3, Ck_Gaf159A (Caldicellulosiruptor kronotskyensis, UniProt E4SDK8); experiment: product inhibition, pNPA hydrolysis; conditions: read-out: % inhibition at 500 mM
T3 construct: gene Calkro_0290; full-length (no signal peptide), C-terminal His6 tag, pET24c(+), E. coli BL21 Star, IMAC
T3 sequence (E4SDK8 entry or part of it): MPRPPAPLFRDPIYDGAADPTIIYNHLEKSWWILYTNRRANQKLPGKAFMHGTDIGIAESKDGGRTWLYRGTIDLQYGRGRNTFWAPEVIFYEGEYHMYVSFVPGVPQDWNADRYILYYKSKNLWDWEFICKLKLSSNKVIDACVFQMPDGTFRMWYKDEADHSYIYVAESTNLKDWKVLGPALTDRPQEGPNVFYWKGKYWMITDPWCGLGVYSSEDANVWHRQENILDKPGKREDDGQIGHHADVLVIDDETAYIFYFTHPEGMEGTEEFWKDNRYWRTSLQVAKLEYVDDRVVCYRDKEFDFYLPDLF

[5] = biological target: T1, Cs_Gaf159A; experiment: product inhibition, pNPA hydrolysis; conditions: read-out: % inhibition at 500 mM

Km [1] [mM]	Km [2] [mM]	inhibition at 500000 µM [3] [%]	inhibition at 500000 µM [4] [%]	inhibition at 500000 µM [5] [%]	Structure (SMILES)
> 10	> 10	–	–	–	O=[N+]([O-])c1ccc(O[C@@H]2O[C@@H](CO)[C@H](O)[C@H]2O)cc1 [pNPA, pNP-α-L-arabinofuranoside]
–	–	< 50	< 50	< 50	OC1OC[C@H](O)[C@H](O)[C@H]1O (some centres unmarked) [arabinose]
